Data on 2 compounds can be found in patent publication US20250281410A1, “HIGH-THROUGHPUT PREPARATION OF MICROPARTICLES WITH PULSATILE RELEASE” (William Marsh Rice University, priority 2021, published 2025).

For data set [1] the following is noted: cited from earlier work.
Data set [2] has as its system Avastin. Briefly: Release of active Avastin from microparticles with excipients, activity by ELISA. Particulars: excipients added during fabrication. How it is done: FIGS. 27A-27F show the release of Avastin from microparticles. FIG. 27A is a heat map depicting the sum of the percentage of Avastin inside the microparticles and Avastin released from the microparticles. Data is normalized to amount of Avastin filled into microparticles. […] Avastin activity was measured using an ELISA. The excipients that were studied were bovine serum albumin (BSA) and sorbitol: monosodium glutamate (MSG): magnesium chloride (MgCl2). FIGS. 27B-27I show plots of the release kinetics of the microparticle formulations of FIG. 27A. The release kinetics depicted in FIG. 27B are for a microparticle with 3 μg BSA as an excipient. The release kinetics depicted in FIG. 27C are for a microparticle with 2 μg BSA as an excipient. […]
Due to concern about the thermal stress potential involved when heating up biotherapeutics which may be desirable as a payload of the microparticles described herein, the temperature of the microparticles was measured during the sealing process to determine the peak temperature and duration of exposure to elevated temperature to quantify the thermal stress that the protein might experience (FIG. 25). […] To determine if these temperatures would damage encapsulated biotherapeutics, the stability of horseradish peroxidase (HRP), was assessed after every step in the formulation process (dispensing, drying, and sealing). […]

As for `CC(C)Cn1cnc2c(N)nc3ccccc3c21` [imiquimod], the solubility in water entry in data set [1] is on record as “approximately 2 μg/mL”.

“Avastin: a fragile biotherapeutic used to treat certain cancers”: the “Avastin remaining after release” value in data set [2] was “significant amounts”.
